From patent publication US10085955B2, “Methods and compositions for treatment of demyelinating diseases” (Pathologica LLC, priority 2013, dated 2018)
“Also recorded” adds a separate entry of the source.

Assays:
[1] = test system: MOG-induced experimental autoimmune encephalomyelitis (EAE); experiment: Third MOG EAE protocol (MGBG, fingolimod and combination); type: in vivo, C57BL/6 mice; conditions: MGBG 30 mpk twice-daily, fingolimod 0.1 mpk once-daily, or both
Text: An experimental murine model of multiple sclerosis employing a myelin oligodendrocyte glycoprotein (MOG) peptide to induce experimental autoimmune encephalomyelitis (EAE) was employed to determine the efficacy of MGBG in preventing and treating that disease. Because of its many similarities to MS, EAE is commonly used to study pathogenesis of autoimmunity, CNS inflammation, demyelination, cell trafficking, and tolerance induction. EAE is characterized by paralysis (in some models the paralysis is remitting-relapsing), CNS inflammation and demyelination. EAE is mediated primarily by dendritic cells, myelin-specific T cells (e.g. Th1 and Th17), and M1 macrophages. B cells may also play a role in some models of EAE. Body weight also tracks disease progression. EAE is induced in C57BL/6 mice by immunization with MOG35-55 or MOG1-125 in CFA emulsion followed by administration of pertussis toxin (PTX) in PBS. The emulsion provides antigen which initiates expansion and differentiation of MOG-specific autoimmune T cells. PTX enhances EAE development by providing additional adjuvant and facilitating entrance of autoimmune T cells into the CNS.
Chronic EAE develops in C57BL/6 mice after immunization with an emulsion of MOG35-55/CFA or MOG1-125/CFA followed by injection of pertussis toxin. This model is used to test the potential of compounds to prevent or mitigate EAE disease. It can be run with the compound dosed from the time of immunization (prophylactic treatment), or with the aim of reversing the course of disease and facilitating recovery by dosing the compound from the time of EAE onset (therapeutic treatment). The model uses female C57BL/6 mice of age 10 to 14 weeks at the start of the study. Typically, EAE develops 8-18 days after immunization. EAE development is usually followed for 4 weeks (28 days) after immunization.
Clinically, EAE progression is scored on a scale of 0 to 5, wherein each score represents the following clinical observations:
Inflammatory foci of approximately 20 cells were counted in each H&E stained section. When inflammatory infiltrates consisted of more than 20 cells, an estimate was made of how many foci of 20 cells were present.
The demyelination score represents an estimate of demyelinated area for each section as follows:
Ten week old female C57BL/6 mice weighing 18-23 g (Taconic Farms) were divided into four groups: mock immunized (n=3) and three MOG-immunized groups receiving MGBG at 30 mpk BID (as the di-HCl monohydrate with a correction factor of 1.49), […] dose, or 0.9% saline vehicle BID (n=12 each). […]

CNS-infiltrating cells = experiment: Second MOG EAE protocol, flow cytometric analysis of CNS-infiltrating cells; type: in vivo, C57BL/6 mice; conditions: second study
Method: A second EAE experiment was run substantially as disclosed above, except that fingolimod was dosed at 1 mpk QD, and the pertussis toxin was administered at 165 ng/dose for both injections.
In addition to clinical scoring, flow cytometric analysis was performed on CNS-infiltrating cells from 6 mice in each of the vehicle-, fingolimod- and MGBG-treated groups, as well as in all three mice from the mock-immunized (disease-free) group.
On Day 28, the brain and spinal cord tissue (from 6 of 12 mice from each of the MOG-immunized groups; and from all 3 mice from the mock-immunized group) in the second MOG EAE study were […] infiltrating cells were isolated by Percoll gradient. After isolating infiltrating cells from each mouse separately, cells were placed in culture with phorbol myristate acetate (PMA, 50 ng/mL), ionomycin (0.5 μg/mL) and brefeldin (1 μg/mL) and incubated for 4-5 hours. The cells were then washed and stained for flow cytometric analysis, as specified below. The following analyses were performed (Becton Dickinson FACScan):
Anti-CD4-Cy-5/anti-IL-17A-PE/anti-IFNγ-FITC (Th1/Th17 cells)
Anti-CD4-Cy-5/anti-CD11c-PE/anti-CD45.2-FITC (infiltrating dendritic cells)
Anti-CD11b-Cy-5/anti-IL-12-PE/anti-CD45.2-FITC (M1 macrophages)
Anti-CD11b-Cy-5/anti-CD206-PE/anti-IL-10-FITC (M2 macrophages)
The number of cells positive for relevant stains and stain combinations was computed both as a percentage of the analyzed cells and as the average number of cells per mouse for each group.

[2] = Day 28, raw numbers of cells, fingolimod 1 mg/kg QD, MGBG 30 mg/kg BID
[3] = Day 28, fingolimod 1 mg/kg QD, MGBG 30 mg/kg BID

With `CC(/C=N/NC(=N)N)=N\NC(=N)N` [MGBG, 1,1′ [methylethanediylidene]dinitrilodiguanidine] the “clinical scores / development of EAE” value ([1]; third 28-day study) was “suppressed EAE comparably to 0.1 mpk fingolimod; also recorded: equivalently efficacious in preventing EAE development”, the “cellular apoptosis in spinal cord” value ([1]; third study) was “equivalently efficacious in reducing apoptosis” and the “number of inflammatory foci in spinal cord” value ([1]; third study) was “equivalently efficacious in reducing the number of inflammatory foci”. The spinal cord demyelination ([1]; third study) was “equivalently efficacious in reducing demyelination”, the “CD4+ IFNy+ cells” value (CNS-infiltrating cells; [2]) was 20.40 +/− 10^3 and the “CD4+ IL-17A+ cells” value (CNS-infiltrating cells; [2]) was 23.55 +/− 10^3. For the same compound, the “CD4+ cells” value (CNS-infiltrating cells; [2]) was 152.11 +/− 10^3, the “CD11b+ CD206+ cells” value (CNS-infiltrating cells; [2]) was 1.92 +/− 10^3 and the “CD11b+ IL10+ cells” value (CNS-infiltrating cells; [2]) was 3.37 +/− 10^3. For the same compound, the “CD11b+ cells” value (CNS-infiltrating cells; [2]) was 137.88 +/− 10^3, the “CD45.2 high CD4− CD11c+ cells” value (CNS-infiltrating cells; [2]) was 11.90 +/− 10^3 and the “CD45.2 high CD11b− IL12+ cells” value (CNS-infiltrating cells; [2]) was 0.21 +/− 10^3. For the same compound, the “IL12+ cells” value (CNS-infiltrating cells; [2]) was 0.89 +/− 10^3, the “# of IL12+ cells (10^3)” value (CNS-infiltrating cells; [3]) was 0.89 +/− 10^3 and the “% CD4+ IFNγ+ cells” value (CNS-infiltrating cells; [3]) was 15.85%. The “% CD11c+ of CD45.2 high CD4− cells” value (CNS-infiltrating cells; [3]) was 7.21%, the “% CD206+ of CD11b+ cells” value (CNS-infiltrating cells; [3]) was 1.39% and the “% IL10+ of CD11b+ cells” value (CNS-infiltrating cells; [3]) was 2.37%. The “% IL12+ of CD45.2 high CD11b− cells” value (CNS-infiltrating cells; [3]) was 0.06%, the “% IL-17A+ cells of CD4+ cells” value (CNS-infiltrating cells; [3]) was 15.24% and the “% of CD4+ cells” value (CNS-infiltrating cells; [3]) was 28.50%. The “% of CD11b+ cells” value (CNS-infiltrating cells; [3]) was 27.86%, the “CNS CD11c+ dendritic cells” value (CNS-infiltrating cells; FIG. 8 A) was “reduces; also recorded: significantly reduced relative and absolute number” and the “IL12+ dendritic cells / IL-12-producing cells” value (CNS-infiltrating cells; FIG. 8 B) was “reduces; also recorded: significantly reduced number”. The Th1 (CNS-infiltrating cells; FIG. 9 A) was “reduces” and the M1 macrophages (CNS-infiltrating cells; FIG. 9 B) was “reduces”.
